In patent US20150044702A1, “MEANS AND METHODS FOR ASSESSING DISORDERS RELATED TO IMPAIRED IRON […] ENERGY METABOLISM” (BASF SE, priority 2012, published 2015):
Marks after values point to notes of the source that are not given here.

Experiment: 28-day rat study, plasma metabolite profiling: markers for Energy metabolism decreased
Assay type: in vivo
Conditions: for 3-Hydroxybutyrate, treatment ratio versus control / Citrate, treatment ratio versus control / Pyruvate, treatment ratio versus control / Succinate, treatment ratio versus control: male rats, plasma; for capability of inducing impaired energy metabolism: statement in words
Description: Drinking water was also offered ad libitum.
The samples were centrifuged for generation of plasma.

Structure (SMILES)	3-Hydroxybutyrate, treatment ratio versus control (day 7)	Citrate, treatment ratio versus control (day 7)	Pyruvate, treatment ratio versus control (day 7)	Succinate, treatment ratio versus control (day 7)	3-Hydroxybutyrate, treatment ratio versus control (day 14)	Citrate, treatment ratio versus control (day 14)	Pyruvate, treatment ratio versus control (day 14)	Succinate, treatment ratio versus control (day 14)	capability of inducing impaired energy metabolism
COCCO [2-Methoxyethanol]	0.45*	0.7*	0.63*	0.91	0.24*	0.39*	0.66*	0.99	capable of inducing impaired energy metabolism
NC(=O)c1ccc(N)nc1 [6-Aminonicotinamide i.p., 6-Aminopyridine-3-carboxamide]	0.31*	0.62*	0.31*	0.92*					capable of inducing impaired energy metabolism
